Measured values reported in patent US12643867B2, “Compositions and uses thereof” (University of Virginia Patent Foundation, priority 2017, dated 2026).

Legend:
Test in all cases: SILAC LC-MS ATP acyl phosphate probe competition, native kinases in HEK293T
Type in all cases: binding
[1] = target: T1, RAF1 (RAF proto-oncogene serine/threonine-protein kinase) (Homo sapiens, UniProt P04049); conditions: site Lys2; ATP 1 mM; Ketanserin, Ritanserin 100 μM; RF001 1 mM
T1 construct: Native kinases; endogenous in cells; host or cells: HEK293T soluble proteome
T1 sequence (P04049 whole entry): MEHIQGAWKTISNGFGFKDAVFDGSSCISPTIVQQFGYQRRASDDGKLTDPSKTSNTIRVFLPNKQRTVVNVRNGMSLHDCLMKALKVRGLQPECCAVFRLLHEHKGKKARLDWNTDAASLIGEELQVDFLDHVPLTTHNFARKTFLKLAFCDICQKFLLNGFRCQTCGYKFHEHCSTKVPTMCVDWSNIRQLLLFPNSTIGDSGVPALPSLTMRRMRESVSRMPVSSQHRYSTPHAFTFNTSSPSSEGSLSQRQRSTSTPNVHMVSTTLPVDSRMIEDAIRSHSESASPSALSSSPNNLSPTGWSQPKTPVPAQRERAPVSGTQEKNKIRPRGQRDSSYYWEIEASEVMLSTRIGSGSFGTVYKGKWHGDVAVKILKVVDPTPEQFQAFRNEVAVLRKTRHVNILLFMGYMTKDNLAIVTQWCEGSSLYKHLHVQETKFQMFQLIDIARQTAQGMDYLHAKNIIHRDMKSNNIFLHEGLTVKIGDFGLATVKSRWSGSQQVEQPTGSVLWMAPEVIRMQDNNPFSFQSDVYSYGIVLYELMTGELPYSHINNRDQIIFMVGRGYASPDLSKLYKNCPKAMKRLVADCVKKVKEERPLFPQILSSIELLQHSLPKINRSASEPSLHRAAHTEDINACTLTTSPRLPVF
Summary of the method: (§1)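 First, HEK293T proteomes at 2 mg/ml in kinase buffer were exposed to compound (heavy) or DMSO (light) for 30 min at 25° C. Next, samples were pooled 1:1 and trypsin/Lys-C digested. Finally, desthiobiotin peptides were enriched on avidin and measured by data-dependent LC-MS/MS.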

[2] = target: T2, KCC2D (Calcium/calmodulin-dependent protein kinase type II delta chain) (Homo sapiens, UniProt Q13557); conditions: site Lys1; ATP 1 mM; Ketanserin, Ritanserin 100 μM; RF001 1 mM
T2 construct: measured against >50 native kinases quantified in HEK293T soluble proteomes; endogenous in cells; host or cells: HEK293T soluble proteome
T2 sequence (Q13557 whole entry): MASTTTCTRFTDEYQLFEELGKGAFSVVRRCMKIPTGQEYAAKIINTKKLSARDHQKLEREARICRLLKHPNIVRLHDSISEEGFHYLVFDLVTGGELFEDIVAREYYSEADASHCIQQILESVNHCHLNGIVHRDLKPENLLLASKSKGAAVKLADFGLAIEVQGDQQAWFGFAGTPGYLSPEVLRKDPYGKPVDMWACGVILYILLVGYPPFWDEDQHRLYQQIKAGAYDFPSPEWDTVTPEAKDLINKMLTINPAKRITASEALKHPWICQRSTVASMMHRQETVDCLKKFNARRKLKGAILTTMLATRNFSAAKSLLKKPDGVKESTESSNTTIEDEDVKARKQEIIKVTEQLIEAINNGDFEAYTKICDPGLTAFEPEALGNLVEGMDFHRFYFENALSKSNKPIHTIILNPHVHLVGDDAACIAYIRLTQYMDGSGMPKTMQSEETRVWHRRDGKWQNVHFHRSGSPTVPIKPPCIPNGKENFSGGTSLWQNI
Summary of the method: as §1

[3] = target: T3, M4K5 (Mitogen-activated protein kinase kinase kinase kinase 5) (Homo sapiens, UniProt Q9Y4K4); conditions: ATP 1 mM, Ketanserin, Ritanserin 100 μM, RF001 1 mM; for SILAC ratio, M4K5 Lys1 probe-modified peptide: site Lys1; for SILAC ratio, M4K5 Lys2 probe-modified peptide: site Lys2
T3 construct: Native kinases; endogenous in cells; host or cells: HEK293T soluble proteome
T3 sequence (Q9Y4K4 whole entry): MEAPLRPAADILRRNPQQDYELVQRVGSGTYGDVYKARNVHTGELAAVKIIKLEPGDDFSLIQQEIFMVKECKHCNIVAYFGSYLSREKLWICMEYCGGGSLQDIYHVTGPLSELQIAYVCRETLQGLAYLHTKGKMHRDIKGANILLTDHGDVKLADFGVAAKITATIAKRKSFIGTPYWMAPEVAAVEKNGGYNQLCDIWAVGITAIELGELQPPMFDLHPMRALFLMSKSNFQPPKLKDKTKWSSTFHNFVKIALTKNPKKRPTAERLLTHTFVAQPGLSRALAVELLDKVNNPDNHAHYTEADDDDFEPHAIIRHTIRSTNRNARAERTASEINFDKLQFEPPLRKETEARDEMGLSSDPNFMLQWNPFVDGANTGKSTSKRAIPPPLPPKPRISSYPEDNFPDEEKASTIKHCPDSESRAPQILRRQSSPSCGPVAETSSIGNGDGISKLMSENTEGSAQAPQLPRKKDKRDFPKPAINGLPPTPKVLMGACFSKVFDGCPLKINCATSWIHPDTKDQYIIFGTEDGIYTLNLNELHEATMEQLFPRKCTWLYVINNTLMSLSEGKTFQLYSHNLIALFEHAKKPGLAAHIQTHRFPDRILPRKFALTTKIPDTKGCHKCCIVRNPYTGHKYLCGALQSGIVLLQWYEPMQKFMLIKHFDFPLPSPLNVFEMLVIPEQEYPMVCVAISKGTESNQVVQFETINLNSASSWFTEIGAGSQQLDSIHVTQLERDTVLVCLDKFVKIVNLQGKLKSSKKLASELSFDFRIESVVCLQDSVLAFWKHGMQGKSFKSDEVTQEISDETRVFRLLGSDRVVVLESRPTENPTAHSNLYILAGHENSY
Summary of the method: as §1

[4] = target: T4, MP2K4 (Dual specificity mitogen-activated protein kinase kinase 4) (Homo sapiens, UniProt P45985); conditions: site Lys2; ATP 1 mM; Ketanserin, Ritanserin 100 μM; RF001 1 mM
T4 construct: Native kinases; endogenous in cells; host or cells: HEK293T soluble proteome
T4 sequence (P45985 1-399): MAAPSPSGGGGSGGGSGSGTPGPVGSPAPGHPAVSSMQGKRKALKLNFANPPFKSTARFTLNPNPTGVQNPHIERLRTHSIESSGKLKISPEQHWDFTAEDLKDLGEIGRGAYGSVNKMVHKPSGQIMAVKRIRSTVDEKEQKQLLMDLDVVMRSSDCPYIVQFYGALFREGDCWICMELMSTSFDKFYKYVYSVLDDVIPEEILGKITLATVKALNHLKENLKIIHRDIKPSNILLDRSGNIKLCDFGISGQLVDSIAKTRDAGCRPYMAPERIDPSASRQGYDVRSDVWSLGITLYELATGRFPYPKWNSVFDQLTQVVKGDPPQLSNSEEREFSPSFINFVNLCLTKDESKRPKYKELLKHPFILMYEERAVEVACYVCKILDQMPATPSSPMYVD
Summary of the method: as §1

[5] = target: T5, PI42C (Phosphatidylinositol-5-phosphate 4-kinase type-2 gamma) (Homo sapiens, UniProt Q8TBX8); conditions: site C2; ATP 1 mM; Ketanserin, Ritanserin 100 μM; RF001 1 mM
T5 construct: Native kinases; endogenous in cells; host or cells: HEK293T soluble proteome
T5 sequence (Q8TBX8 1-421): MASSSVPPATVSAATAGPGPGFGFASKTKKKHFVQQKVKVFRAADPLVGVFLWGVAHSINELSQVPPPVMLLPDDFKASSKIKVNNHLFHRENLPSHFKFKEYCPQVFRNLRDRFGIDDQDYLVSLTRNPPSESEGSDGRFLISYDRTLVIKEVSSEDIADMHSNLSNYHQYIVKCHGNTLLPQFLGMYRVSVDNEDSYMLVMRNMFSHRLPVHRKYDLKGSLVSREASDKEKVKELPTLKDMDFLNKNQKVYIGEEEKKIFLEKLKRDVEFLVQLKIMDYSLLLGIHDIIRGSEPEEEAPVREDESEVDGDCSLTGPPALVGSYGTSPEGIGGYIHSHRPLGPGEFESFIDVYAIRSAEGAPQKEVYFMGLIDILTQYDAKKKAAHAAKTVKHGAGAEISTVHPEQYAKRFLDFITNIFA
Summary of the method: as §1

SILAC ratio, RAF1 probe-modified peptide [1] | SILAC ratio, KCC2D probe-modified peptide [2] | SILAC ratio, M4K5 Lys1 probe-modified peptide [3] | SILAC ratio, M4K5 Lys2 probe-modified peptide [3] | SILAC ratio, MP2K4 probe-modified peptide [4] | SILAC ratio, PI42C probe-modified peptide [5] | Structure (SMILES)
1.4 | 1.5 | 1.3 | 1.3 | 1.3 | 1.2 | O=C(c1ccc(F)cc1)C1CCN(CCn2c(=O)[nH]c3ccccc3c2=O)CC1 [Ketanserin]
2.1 | 1.2 | 0.9 | 1.3 | 0.9 | 0.8 | Fc1ccc(C(=C2CCNCC2)c2ccc(F)cc2)cc1 [RF001, 4-(Bis(4-fluorophenyl)methylene) piperidine]

Structure (SMILES) | SILAC ratio, RAF1 probe-modified peptide [1] | SILAC ratio, KCC2D probe-modified peptide [2] | SILAC ratio, M4K5 Lys1 probe-modified peptide [3] | SILAC ratio, M4K5 Lys2 probe-modified peptide [3] | SILAC ratio, MP2K4 probe-modified peptide [4] | SILAC ratio, PI42C probe-modified peptide [5]
Cc1nc2sccn2c(=O)c1CCN1CCC(=C(c2ccc(F)cc2)c2ccc(F)cc2)CC1 [Ritanserin] | 3.9 | 2.3 | 2.4 | 1.9 | 1.6 | 1.7
